Measured values: ChEMBL document CHEMBL1136480, “Successful shape-based virtual screening: the discovery of a potent inhibitor of the type I TGFbeta receptor kinase (TbetaRI)” (Bioorg Med Chem Lett, 2003)

System: HepG2
Assay: Inhibition of TGF-beta-induced expression of PAI-luciferase reporter in HepG2 cells
Type: functional, cell-based
Settings: Homo sapiens

c1ccc(-c2n[nH]cc2-c2ccnc3ccccc23)nc1
IC50: 60 nM
